Measurements: ChEMBL document CHEMBL5055644, “Cysteine derivatives as acetyl lysine mimics to inhibit zinc-dependent histone deacetylases for treating cancer” (Eur J Med Chem, 2021)
Activity calls are given as the source filed them. No cut-off for these calls is given here.

Legend:
[1] = target: T1, Protein deacetylase HDAC6 (Homo sapiens, UniProt Q9UBN7); test: Inhibition of HDAC6 (unknown origin) using Boc-Lys(acetyl)-AMC as fluorogenic substrate measured after 1 hr by flourescence plate reader method
T1 sequence (Q9UBN7 whole entry): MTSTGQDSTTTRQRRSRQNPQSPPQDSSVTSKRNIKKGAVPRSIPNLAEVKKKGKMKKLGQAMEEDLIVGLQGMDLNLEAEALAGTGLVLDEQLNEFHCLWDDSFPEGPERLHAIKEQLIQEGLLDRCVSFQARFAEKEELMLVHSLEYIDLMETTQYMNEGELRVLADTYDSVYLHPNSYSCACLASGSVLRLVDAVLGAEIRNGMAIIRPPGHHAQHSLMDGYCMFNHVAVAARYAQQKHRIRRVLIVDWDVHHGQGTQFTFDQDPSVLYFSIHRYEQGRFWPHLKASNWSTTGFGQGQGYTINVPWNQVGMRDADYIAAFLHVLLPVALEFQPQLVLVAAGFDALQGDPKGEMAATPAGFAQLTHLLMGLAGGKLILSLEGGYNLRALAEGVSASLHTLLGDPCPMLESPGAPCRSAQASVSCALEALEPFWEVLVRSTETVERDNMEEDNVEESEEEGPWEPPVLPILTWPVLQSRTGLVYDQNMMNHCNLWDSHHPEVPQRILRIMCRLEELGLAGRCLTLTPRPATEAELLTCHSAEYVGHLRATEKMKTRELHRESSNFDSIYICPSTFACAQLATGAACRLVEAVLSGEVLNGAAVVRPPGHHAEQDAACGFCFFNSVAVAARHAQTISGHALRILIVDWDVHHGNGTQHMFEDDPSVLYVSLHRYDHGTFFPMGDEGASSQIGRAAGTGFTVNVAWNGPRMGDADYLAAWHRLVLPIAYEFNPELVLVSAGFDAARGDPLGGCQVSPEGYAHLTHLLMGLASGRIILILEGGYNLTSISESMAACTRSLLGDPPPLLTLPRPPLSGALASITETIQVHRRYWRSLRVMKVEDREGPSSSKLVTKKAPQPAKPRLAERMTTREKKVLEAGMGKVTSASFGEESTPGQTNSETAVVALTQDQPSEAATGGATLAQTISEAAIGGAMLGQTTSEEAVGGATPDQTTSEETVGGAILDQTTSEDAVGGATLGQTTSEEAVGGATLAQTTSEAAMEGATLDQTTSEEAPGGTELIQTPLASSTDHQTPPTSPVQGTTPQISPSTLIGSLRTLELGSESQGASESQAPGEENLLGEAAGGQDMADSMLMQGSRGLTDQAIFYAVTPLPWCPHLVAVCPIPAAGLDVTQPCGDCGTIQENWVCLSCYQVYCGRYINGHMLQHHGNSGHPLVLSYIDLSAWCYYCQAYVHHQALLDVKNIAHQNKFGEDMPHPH

Histone deacetylase 1 = Histone deacetylase 1 (Homo sapiens, UniProt Q13547); test: Inhibition of HDAC1 (unknown origin) using Boc-Lys(acetyl)-AMC as fluorogenic substrate measured after 1 hr by flourescence plate reader method
Sequence of Histone deacetylase 1 (Q13547 whole entry): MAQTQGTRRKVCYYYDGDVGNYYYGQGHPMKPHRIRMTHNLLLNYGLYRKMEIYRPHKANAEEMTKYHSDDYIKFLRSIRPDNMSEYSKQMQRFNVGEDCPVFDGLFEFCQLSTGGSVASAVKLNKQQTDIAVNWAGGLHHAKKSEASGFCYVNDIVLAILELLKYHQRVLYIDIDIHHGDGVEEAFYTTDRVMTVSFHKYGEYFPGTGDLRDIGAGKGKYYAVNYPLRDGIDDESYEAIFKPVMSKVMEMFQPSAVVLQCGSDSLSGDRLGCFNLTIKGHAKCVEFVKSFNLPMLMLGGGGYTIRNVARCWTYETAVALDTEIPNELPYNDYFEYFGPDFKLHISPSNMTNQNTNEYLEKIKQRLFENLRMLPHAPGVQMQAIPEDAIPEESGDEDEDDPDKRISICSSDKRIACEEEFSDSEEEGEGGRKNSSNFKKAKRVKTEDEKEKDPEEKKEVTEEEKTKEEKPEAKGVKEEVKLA

A549 [2] = test: Upregulation of p21 in human A549 cells up to 10 uM measured after 8 hrs by Western blot analysis; type: functional, cell-based
A549 [3] = test: Induction of apoptosis in human A549 cells at 1 to 10 uM after 48 hrs by Annexin-V/propidium iodide staining based flow cytometric analysis; type: functional, cell-based; conditions: dose 1-10 µM
[4] = Acute toxicity in po dosed BALB/c mouse assessed as lethal dose; type: organism-based; conditions: in vivo
[5] = target: Histone deacetylase 3/Nuclear receptor corepressor 2 (HDAC3/NCoR2) (Homo sapiens, UniProt O15379); test: Inhibition of C-terminal His-tagged recombinant human HDAC3 (1 to 428 residues)/N-terminal GST-tagged recombinant human NCoR2 (395 to 489 residues) co-expressed in baculovirus infected Sf9 cells using Boc-Lys(acetyl)-AMC as fluorogenic substrate measured after 1 hr by flourescence plate reader method
Sequence of Histone deacetylase 3/Nuclear receptor corepressor 2 (HDAC3/NCoR2) (O15379 whole entry, the tested form may be a part): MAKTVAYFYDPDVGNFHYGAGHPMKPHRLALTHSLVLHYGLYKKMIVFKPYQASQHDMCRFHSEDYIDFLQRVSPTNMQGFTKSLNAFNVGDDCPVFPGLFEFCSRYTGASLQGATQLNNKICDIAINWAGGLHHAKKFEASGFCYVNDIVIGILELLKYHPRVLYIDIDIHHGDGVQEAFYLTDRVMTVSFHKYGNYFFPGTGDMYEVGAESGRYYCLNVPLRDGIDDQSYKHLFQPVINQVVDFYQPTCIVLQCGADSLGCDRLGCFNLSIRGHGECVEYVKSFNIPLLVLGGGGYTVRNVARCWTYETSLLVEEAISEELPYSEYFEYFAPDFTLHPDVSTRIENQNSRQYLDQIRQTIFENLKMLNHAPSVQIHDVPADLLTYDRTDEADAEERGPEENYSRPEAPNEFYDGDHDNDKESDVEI
Sequence of Histone deacetylase 3/Nuclear receptor corepressor 2 (HDAC3/NCoR2) (Q9Y618 whole entry, further chain, the tested form may be a part): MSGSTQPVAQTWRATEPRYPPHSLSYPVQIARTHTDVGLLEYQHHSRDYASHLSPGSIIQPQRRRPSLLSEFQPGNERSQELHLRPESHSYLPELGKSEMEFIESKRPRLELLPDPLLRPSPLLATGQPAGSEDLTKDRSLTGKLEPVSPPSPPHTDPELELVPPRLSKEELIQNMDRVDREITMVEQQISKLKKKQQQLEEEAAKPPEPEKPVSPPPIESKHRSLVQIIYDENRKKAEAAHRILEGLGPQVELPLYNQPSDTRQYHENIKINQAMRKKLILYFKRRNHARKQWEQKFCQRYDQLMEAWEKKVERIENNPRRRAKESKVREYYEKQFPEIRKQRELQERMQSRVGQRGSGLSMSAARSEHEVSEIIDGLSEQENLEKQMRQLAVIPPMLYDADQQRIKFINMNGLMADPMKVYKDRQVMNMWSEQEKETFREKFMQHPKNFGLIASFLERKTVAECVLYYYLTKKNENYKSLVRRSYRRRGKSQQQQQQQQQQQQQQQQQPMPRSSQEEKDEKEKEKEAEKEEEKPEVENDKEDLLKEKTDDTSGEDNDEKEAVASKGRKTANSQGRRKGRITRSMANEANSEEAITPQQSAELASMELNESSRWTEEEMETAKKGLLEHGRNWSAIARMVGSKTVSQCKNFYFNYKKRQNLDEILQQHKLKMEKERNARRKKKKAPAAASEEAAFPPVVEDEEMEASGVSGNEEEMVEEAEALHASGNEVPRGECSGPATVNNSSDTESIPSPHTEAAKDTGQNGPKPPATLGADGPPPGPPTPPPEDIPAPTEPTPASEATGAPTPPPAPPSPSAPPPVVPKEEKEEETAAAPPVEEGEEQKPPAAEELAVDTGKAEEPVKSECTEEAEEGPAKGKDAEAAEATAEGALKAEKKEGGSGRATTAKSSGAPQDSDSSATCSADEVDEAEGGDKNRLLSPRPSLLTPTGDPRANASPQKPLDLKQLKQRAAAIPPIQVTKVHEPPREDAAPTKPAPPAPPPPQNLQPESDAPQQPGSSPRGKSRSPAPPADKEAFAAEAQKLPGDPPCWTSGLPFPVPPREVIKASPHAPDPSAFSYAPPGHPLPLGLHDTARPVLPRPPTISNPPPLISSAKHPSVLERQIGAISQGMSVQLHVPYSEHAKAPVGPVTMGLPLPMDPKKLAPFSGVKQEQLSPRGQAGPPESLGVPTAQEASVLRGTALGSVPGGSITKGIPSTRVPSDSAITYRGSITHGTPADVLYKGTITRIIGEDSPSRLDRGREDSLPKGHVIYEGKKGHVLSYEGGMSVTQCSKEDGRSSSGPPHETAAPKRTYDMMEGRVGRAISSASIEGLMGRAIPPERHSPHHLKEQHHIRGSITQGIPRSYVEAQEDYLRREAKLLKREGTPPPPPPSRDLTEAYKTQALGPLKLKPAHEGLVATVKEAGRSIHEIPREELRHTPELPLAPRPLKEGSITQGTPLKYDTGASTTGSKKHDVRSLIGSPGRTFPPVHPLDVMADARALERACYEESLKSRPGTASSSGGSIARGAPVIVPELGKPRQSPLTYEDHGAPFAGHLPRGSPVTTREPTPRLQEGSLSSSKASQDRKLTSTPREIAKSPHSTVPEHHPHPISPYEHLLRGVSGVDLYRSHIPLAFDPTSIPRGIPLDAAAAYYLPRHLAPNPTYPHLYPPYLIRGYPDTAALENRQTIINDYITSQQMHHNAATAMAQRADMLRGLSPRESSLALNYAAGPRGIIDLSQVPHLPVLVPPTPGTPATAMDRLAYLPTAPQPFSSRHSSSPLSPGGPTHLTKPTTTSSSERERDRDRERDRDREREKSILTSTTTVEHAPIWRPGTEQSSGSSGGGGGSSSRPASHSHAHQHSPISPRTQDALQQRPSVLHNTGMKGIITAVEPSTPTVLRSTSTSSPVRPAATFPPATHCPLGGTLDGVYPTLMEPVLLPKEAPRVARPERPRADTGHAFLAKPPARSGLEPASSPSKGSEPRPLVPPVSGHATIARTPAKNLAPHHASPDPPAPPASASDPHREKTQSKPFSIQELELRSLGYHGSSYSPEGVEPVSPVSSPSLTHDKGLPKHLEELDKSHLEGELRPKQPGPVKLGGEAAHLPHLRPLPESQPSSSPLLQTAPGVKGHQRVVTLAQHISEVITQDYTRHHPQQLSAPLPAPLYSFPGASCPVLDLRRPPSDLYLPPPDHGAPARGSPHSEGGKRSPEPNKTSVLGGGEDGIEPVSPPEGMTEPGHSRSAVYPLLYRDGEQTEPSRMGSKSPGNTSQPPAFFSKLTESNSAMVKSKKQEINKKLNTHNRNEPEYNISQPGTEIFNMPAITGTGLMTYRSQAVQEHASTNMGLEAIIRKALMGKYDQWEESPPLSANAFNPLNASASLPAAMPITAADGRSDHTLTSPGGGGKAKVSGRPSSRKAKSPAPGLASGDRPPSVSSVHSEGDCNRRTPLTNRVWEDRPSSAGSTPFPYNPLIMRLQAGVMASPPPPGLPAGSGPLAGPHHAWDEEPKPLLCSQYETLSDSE

HeLa = test: cells; type: functional; conditions: Homo sapiens, time 48 hrs
Description: Antiproliferative activity against human HeLa cells assessed as inhibition of cell proliferation incubated for 48 hrs by CCK8 assay

[6] = Half life in mouse liver microsomes; type: ADME, Microsome
HepG2 = test: cells; type: functional; conditions: Homo sapiens, time 48 hrs
Description: Antiproliferative activity against human HepG2 cells assessed as inhibition of cell proliferation incubated for 48 hrs by CCK8 assay

[7] = Acute toxicity in BALB/c mouse assessed as effect on normal behaviour at up to 2000 mg/kg, po; type: organism-based; conditions: in vivo
[8] = Half life in human liver microsomes; type: ADME, Microsome
[9] = target: Protein deacetylase HDAC6 (Mus musculus) (UniProt Q9Z2V5); test: In vivo inhibition of HDAC6 in BALB/c mouse xenografted with human A549 cells assessed as increase in alpha tubulin acetylation at 25 to 50 mg/kg, iv administered for 3 weeks by immunohistochemical analysis; type: functional, organism-based; conditions: dose 25-50 mg/kg
Histone deacetylase 2 = Histone deacetylase 2 (Homo sapiens, UniProt Q92769); test: Inhibition of full length human HDAC2 using Boc-Lys(acetyl)-AMC as fluorogenic substrate measured after 1 hr by flourescence plate reader method
Sequence of Histone deacetylase 2 (Q92769 whole entry): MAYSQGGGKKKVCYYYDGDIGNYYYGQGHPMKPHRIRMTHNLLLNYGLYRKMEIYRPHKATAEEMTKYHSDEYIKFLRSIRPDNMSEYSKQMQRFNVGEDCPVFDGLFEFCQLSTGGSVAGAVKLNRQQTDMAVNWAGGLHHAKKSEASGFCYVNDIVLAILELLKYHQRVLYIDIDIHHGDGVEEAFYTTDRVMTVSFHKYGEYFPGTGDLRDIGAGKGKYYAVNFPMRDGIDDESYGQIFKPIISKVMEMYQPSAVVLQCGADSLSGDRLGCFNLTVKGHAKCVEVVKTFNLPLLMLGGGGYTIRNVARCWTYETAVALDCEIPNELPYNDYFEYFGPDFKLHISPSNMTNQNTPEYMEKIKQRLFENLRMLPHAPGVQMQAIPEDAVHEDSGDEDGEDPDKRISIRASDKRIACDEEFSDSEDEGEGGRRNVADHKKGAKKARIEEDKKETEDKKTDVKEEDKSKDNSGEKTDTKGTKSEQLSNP

K562 = test: Induction of apoptosis in human K562 cells assessed as increased cleaved caspase 9 at 10 uM measured after 8 hrs by Western blot analysis; type: functional, cell-based
MCF7 = test: cells; type: functional; conditions: Homo sapiens, time 48 hrs
Description: Antiproliferative activity against human MCF-7 cells assessed as inhibition of cell proliferation incubated for 48 hrs by CCK8 assay

[10] = target: Class 1 histone deacetylase (Homo sapiens) (UniProt Q13547+O15379+Q92769+Q9BY41); test: Inhibition of class 1 HDAC in human K562 cells assessed as increase in histone H3 acetylation at 10 uM measured after 8 hrs by Western blot analysis; type: cell-based
Sequence of Class 1 histone deacetylase (Homo sapiens) (O15379 whole entry, looked up, one chain of several): as the sequence (O15379 whole entry, the tested form may be a part) above
Sequence of Class 1 histone deacetylase (Homo sapiens) (Q13547 whole entry, looked up, one chain of several): as the sequence (Q13547 whole entry) above
Sequence of Class 1 histone deacetylase (Homo sapiens) (Q92769 whole entry, looked up, one chain of several): as the sequence (Q92769 whole entry) above

A549 [11] = test: Antitumour activity against human A549 cells xenografted in BALB/c mouse assessed as tumor growth inhibition at 50 mg/kg,iv administered for 3 weeks relative to control; type: functional; conditions: A549, 504 h, read-out: TGI
[12] = target: Histone deacetylase (Homo sapiens) (UniProt Q13547+O15379+Q9UBN7+Q92769+Q9UQL6+Q8WUI4+Q9BY41+Q96DB2+P56524+Q9UKV0+Q969S8); test: Inhibition of HDAC in human HeLa nuclear extract at 1 uM using Boc-Lys(acetyl)-AMC as fluorogenic substrate measured after 1 hr by flourescence plate reader method relative to control; type: subcellular; conditions: Nucleus
Histone deacetylase 8 = target: T2, Histone deacetylase 8 (Homo sapiens, UniProt Q9BY41); test: Inhibition of full length human C-terminal His-tagged HDAC8 expressed in baculovirus infected Sf9 insect cells using Boc-Lys(acetyl)-AMC as fluorogenic substrate measured after 1 hr by flourescence plate reader method
T2 sequence (Q9BY41 whole entry): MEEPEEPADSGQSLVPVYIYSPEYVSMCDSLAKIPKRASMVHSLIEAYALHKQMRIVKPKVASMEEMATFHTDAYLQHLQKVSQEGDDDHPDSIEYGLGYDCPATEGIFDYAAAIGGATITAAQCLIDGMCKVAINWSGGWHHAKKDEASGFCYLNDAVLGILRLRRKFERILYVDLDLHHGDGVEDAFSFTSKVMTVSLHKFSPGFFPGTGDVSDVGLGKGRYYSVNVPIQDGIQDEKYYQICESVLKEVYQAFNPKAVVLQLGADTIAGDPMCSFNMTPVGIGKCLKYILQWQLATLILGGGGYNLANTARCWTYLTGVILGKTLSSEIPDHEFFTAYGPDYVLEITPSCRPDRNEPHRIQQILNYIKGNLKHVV

| IC50 [1] [nM] | IC50 (Histone deacetylase 1) [nM] | IC50 [5] [nM] | GI50 (HeLa) [nM] | GI50 (HepG2) [nM] | IC50 (Histone deacetylase 2) [nM] | GI50 (MCF7) [nM] | inhibition [10] | inhibition [12] [%] | IC50 (Histone deacetylase 8) [nM] | Compound | Activity (A549 [2]) | Activity (A549 [3]) | LD50 [4] [mg/kg] | half-life [6] [min] | Activity [7] | half-life [8] [min] | inhibition [9] | Activity (K562) | inhibition in vivo at 50 mg/kg (A549 [11]) [%] |
| --- | --- | --- | --- | --- | --- | --- | --- | --- | --- | --- | --- | --- | --- | --- | --- | --- | --- | --- | --- |
| 19.6 | 150 | 69.3 | 4300 | 4500 | > 200 | 4900 | Active | 83 | > 200 | O=C(CCCSC[C@H](NC(=O)OCc1ccccc1)C(=O)Nc1cccc2ccccc12)NO | – | – | – | < 1 | – | 3.96 | – | – | – |
| 20.6 | 172 | 108 | 3800 | 7300 | > 200 | 4700 | Active | 84 | > 200 | O=C(CCCSC[C@H](NC(=O)OCc1ccccc1)C(=O)Nc1ccccc1)NO | – | – | – | – | – | – | – | – | – |

| Compound | IC50 [1] [nM] | IC50 (Histone deacetylase 1) [nM] | IC50 [5] [nM] | GI50 (HeLa) [nM] | GI50 (HepG2) [nM] | IC50 (Histone deacetylase 2) [nM] | GI50 (MCF7) [nM] | inhibition [10] | inhibition [12] [%] | IC50 (Histone deacetylase 8) [nM] | Activity (A549 [2]) | Activity (A549 [3]) | LD50 [4] [mg/kg] | half-life [6] [min] | Activity [7] | half-life [8] [min] | inhibition [9] | Activity (K562) | inhibition in vivo at 50 mg/kg (A549 [11]) [%] |
| --- | --- | --- | --- | --- | --- | --- | --- | --- | --- | --- | --- | --- | --- | --- | --- | --- | --- | --- | --- |
| O=C(CCCSC[C@H](NC(=O)c1ccccc1)C(=O)Nc1ccccc1)NO | 13.7 | 198 | 126 | 4100 | 6200 | > 200 | 3700 | Active | 80 | > 200 | Active | Active | > 2000 | 22.6 | Non-Toxic | 34.8 | Active | Active | 75 |
